Results: ChEMBL document CHEMBL1201862, “PubChem BioAssay data set” (2004)
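How tested: cells in 96-well plates exposed to compound for 48 hours at five concentrations. GI50: concentration for 50% inhibition of growth.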 Activity calls are given as the source filed them. No stated cut-off is given here; in the data, active = GI50 up to about 1.1 µM and inactive = higher.

Columns and labels:
Test in all cases: growth of human tumour cells (NCI), 48 h
786-0 = tested on: 786-0
A498 = tested on: A498
A549 = tested on: A549
ACHN = tested on: ACHN
BT-549 = tested on: BT-549
CAKI-1 = tested on: CAKI-1
CCRF-CEM = tested on: CCRF-CEM
COLO 205 = tested on: COLO 205
DU-145 = tested on: DU-145
EKVX = tested on: EKVX
HCT-116 = tested on: HCT-116
HCT-15 = tested on: HCT-15
HL-60 = tested on: HL-60
HOP-62 = tested on: HOP-62
HOP-92 = tested on: HOP-92
HT-29 = tested on: HT-29
Hs-578T = tested on: Hs-578T
IGROV-1 = tested on: IGROV-1
KM12 = tested on: KM12
LOX IMVI = tested on: LOX IMVI
M14 = tested on: M14
MCF7 = tested on: MCF7
MDA-MB-231 = tested on: MDA-MB-231
MDA-MB-435 = tested on: MDA-MB-435
MDA-N = tested on: MDA-N
MOLT-4 = tested on: MOLT-4
NCI-H226 = tested on: NCI-H226
NCI-H23 = tested on: NCI-H23
NCI-H460 = tested on: NCI-H460
NCI-H522 = tested on: NCI-H522
NCI/ADR-RES = tested on: NCI/ADR-RES
OVCAR-3 = tested on: OVCAR-3
OVCAR-4 = tested on: OVCAR-4
OVCAR-5 = tested on: OVCAR-5
OVCAR-8 = tested on: OVCAR-8
PC-3 = tested on: PC-3
RXF 393 = tested on: RXF 393
SF-268 = tested on: SF-268
SF-295 = tested on: SF-295
SF-539 = tested on: SF-539
SK-MEL-28 = tested on: SK-MEL-28
SK-MEL-2 = tested on: SK-MEL-2
SK-MEL-5 = tested on: SK-MEL-5
SK-OV-3 = tested on: SK-OV-3
SN12C = tested on: SN12C
SNB-19 = tested on: SNB-19
SNB-75 = tested on: SNB-75
SW-620 = tested on: SW-620
T47D = tested on: T47D
TK-10 = tested on: TK-10
U-251 = tested on: U-251
UACC-257 = tested on: UACC-257
UACC-62 = tested on: UACC-62
UO-31 = tested on: UO-31
HCC 2998 = tested on: HCC 2998
K562 = tested on: K562
Malme-3M = tested on: Malme-3M

Measured: GI50

CC(C)Oc1c(C2(c3ccccc3O)SCCCS2)c(=O)c1=O
inactive: 786-0 > 100 µM | A498 62.8 µM | A549 > 100 µM | ACHN > 100 µM | BT-549 42.5 µM | CAKI-1 > 100 µM | CCRF-CEM 20.5 µM | COLO 205 > 100 µM | DU-145 93.3 µM | EKVX 55.5 µM | HCT-116 > 100 µM | HL-60 54.2 µM | HOP-62 > 100 µM | HOP-92 19.7 µM | HT-29 > 100 µM | Hs-578T > 100 µM | IGROV-1 30.3 µM | KM12 51.5 µM | LOX IMVI > 100 µM | M14 > 100 µM | MCF7 > 100 µM | MDA-MB-231 69.2 µM | MDA-MB-435 > 100 µM | MDA-N > 100 µM | MOLT-4 57.5 µM | NCI-H226 63.5 µM | NCI-H23 89.3 µM | NCI-H460 > 100 µM | NCI-H522 23.6 µM | NCI/ADR-RES > 100 µM | OVCAR-3 79.3 µM | OVCAR-4 > 100 µM | OVCAR-5 38.7 µM | OVCAR-8 > 100 µM | PC-3 > 100 µM | RXF 393 75.9 µM | SF-268 > 100 µM | SF-295 > 100 µM | SF-539 > 100 µM | SK-MEL-28 > 100 µM | SK-MEL-2 > 100 µM | SK-MEL-5 > 100 µM | SK-OV-3 > 100 µM | SN12C > 100 µM | SNB-19 73.3 µM | SNB-75 36.1 µM | SW-620 > 100 µM | T47D 38.9 µM | TK-10 > 100 µM | U-251 > 100 µM | UACC-257 > 100 µM | UACC-62 98.6 µM | UO-31 47.9 µM
> 100 µM: HCT-15

Cc1cc(C)n(C2=NS(=O)(=O)c3ccccc3N2C)n1
inactive: 786-0 > 100 µM | A498 > 100 µM | A549 > 100 µM | ACHN > 100 µM | BT-549 > 100 µM | CAKI-1 > 100 µM | CCRF-CEM > 100 µM | COLO 205 > 100 µM | DU-145 > 100 µM | EKVX > 100 µM | HCC 2998 > 100 µM | HCT-116 > 100 µM | HL-60 > 100 µM | HOP-62 > 100 µM | HOP-92 > 100 µM | HT-29 > 100 µM | Hs-578T > 100 µM | IGROV-1 > 100 µM | K562 > 100 µM | KM12 > 100 µM | LOX IMVI > 100 µM | M14 > 100 µM | MCF7 > 100 µM | MDA-MB-231 > 100 µM | MDA-MB-435 > 100 µM | MDA-N > 100 µM | MOLT-4 > 100 µM | NCI-H226 > 100 µM | NCI-H23 > 100 µM | NCI-H460 > 100 µM | NCI-H522 > 100 µM | NCI/ADR-RES > 100 µM | OVCAR-3 > 100 µM | OVCAR-4 > 100 µM | OVCAR-5 > 100 µM | OVCAR-8 > 100 µM | PC-3 > 100 µM | RXF 393 > 100 µM | SF-268 > 100 µM | SF-295 > 100 µM | SF-539 > 100 µM | SK-MEL-28 > 100 µM | SK-MEL-2 > 100 µM | SK-MEL-5 > 100 µM | SK-OV-3 > 100 µM | SN12C > 100 µM | SNB-19 > 100 µM | SW-620 > 100 µM | T47D > 100 µM | TK-10 > 100 µM | U-251 > 100 µM | UACC-257 > 100 µM | UACC-62 > 100 µM | UO-31 > 100 µM
> 100 µM: HCT-15

Cc1ccc(-c2cc(-c3ccc(Cl)cc3)nc(/N=C3\C(=O)N(CN4CCCCC4)c4ccc(Cl)cc43)n2)cc1
24.4 µM: HCT-15
inactive: 786-0 18.9 µM | A498 18.8 µM | A549 16.4 µM | ACHN 29.6 µM | BT-549 22.4 µM | CAKI-1 18.1 µM | CCRF-CEM 36.3 µM | COLO 205 25.2 µM | DU-145 37.5 µM | EKVX 77.8 µM | HCC 2998 14.9 µM | HCT-116 23.1 µM | HL-60 16 µM | HOP-62 26.3 µM | HOP-92 15.6 µM | HT-29 32.3 µM | Hs-578T 18.9 µM | IGROV-1 10.5 µM | K562 19.9 µM | KM12 15.8 µM | LOX IMVI 23.3 µM | M14 15.6 µM | MCF7 21.1 µM | MDA-MB-231 36.2 µM | MDA-MB-435 20.3 µM | MDA-N 21.3 µM | MOLT-4 11.7 µM | Malme-3M 84.3 µM | NCI-H226 39.4 µM | NCI-H23 19.1 µM | NCI-H460 22.5 µM | NCI-H522 12.5 µM | NCI/ADR-RES 22.1 µM | OVCAR-3 35.5 µM | OVCAR-4 31.5 µM | OVCAR-5 38.2 µM | OVCAR-8 18.5 µM | PC-3 34 µM | RXF 393 18.3 µM | SF-268 17.9 µM | SF-295 42.2 µM | SF-539 24.5 µM | SK-MEL-28 64.1 µM | SK-MEL-2 18.2 µM | SK-MEL-5 19.8 µM | SK-OV-3 31.8 µM | SN12C 25.9 µM | SNB-19 11.2 µM | SNB-75 42.9 µM | SW-620 24.3 µM | T47D 29.9 µM | TK-10 21.7 µM | U-251 24 µM | UACC-257 22.9 µM | UACC-62 23 µM
